Assay results published in US20050107611A1, “Pyrazolyl-substituted triazoloquinoxalines” (priority 2001, published 2005).
Where two headings read alike, the source gives them in different places.

Experiments:
A1 adenosine receptor [1] = target: T1, A1 adenosine receptor (Rattus norvegicus, UniProt P25099); test: Radioligand binding with [3H]CCPA on A1-adenosine receptors, rat brain cortex membranes; design: tissue Pel Freez Company (Rogers, Ark., USA); host or cells: rat brain cerebral cortex membranes; conditions: for Ki: Table 2, [3H]CCPA, read-out: A1 K1
T1 sequence (P25099 1-326): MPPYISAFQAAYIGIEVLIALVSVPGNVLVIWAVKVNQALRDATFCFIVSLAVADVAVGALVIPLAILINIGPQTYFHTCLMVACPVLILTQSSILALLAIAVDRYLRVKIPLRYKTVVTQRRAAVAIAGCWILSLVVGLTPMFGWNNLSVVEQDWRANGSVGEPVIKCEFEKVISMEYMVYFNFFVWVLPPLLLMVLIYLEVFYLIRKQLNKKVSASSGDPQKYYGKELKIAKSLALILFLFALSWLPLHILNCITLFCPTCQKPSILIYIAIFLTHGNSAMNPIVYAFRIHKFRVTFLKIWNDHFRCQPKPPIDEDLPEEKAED
Description: (§1) The data of the biological tests that are cited below results from radioligand-binding assays on A1, A2A, A2B and A3 adenosine receptors (ARs).
(§2) The following selective radioligands are used in the biological tests: • [^3H]CCPA (for A1 ARs) [Klotz et al., Naunyn-Schmiedeberg's Arch. Pharmacol., 340, 679 (1989)] • [^3]MSX-2 (for A2A ARs) [Muiller et al., Eur. J. Pharm. Sci., 10, 259 (2000)] • [^3H]ZM241385 (for A2B ARs_[X.-D. Ji, K. A. Jacobson, Drug Des. Discov., 16, 217 (1999)] • [^3H]PSB-11 (new antagonistic radioligand for human A3 ARs) [M. Dieckmann, M. Thorand, V. Ozola, C. E. Muiller, in Vorbereitung [Preparation] (2001)]. • [^125I]AB-MECA (for rat-A3 ARs) [Olah et al., Mol. Pharmacol., 45, 978 (1994)]. Description of the Assays That are Used for Testing Substances Production of Tissue Preparations Made from Rat Brains
For the preparations, deep-frozen rat brains of the Pel Freez Company (Rogers, Ark., USA) are used. The rat brains are thawed in 0.32 M saccharose solution, the cortex is cut off, and the striata are prepared outside.
(§3) The cell decomposing of the cerebral cortex is carried out with a glass-Teflon homogenizer (stages 5-6, 10 seconds) in 0.32 M saccharose solution. The membranes are purified over various centrifuging steps. With centrifuging at 600 g, 4° C., for 10 minutes, a large amount of cell debris is separated via the P1 fraction, and the supernatant (P2 fraction) is further worked up: in the subsequent three centrifuging steps (35,000 g; 4° C.; 60 minutes), a pellet is produced that is resuspended in 50 mmol of TRIS buffer, pH 7.4 with the Ultraturrax (stages 3-4, 3 seconds); the respective supernatant is discarded. The striata are added to cold TRIS buffer, homogenized with the Ultraturrax in stages 3 to 4-(3 seconds) and then centrifuged at 35,000 g, 4° C., for 20 minutes. The supernatant is discarded, and the pellet is resuspended in 50 mmol of TRIS buffer (50 mmol, pH 7.4). The washing process is repeated twice more. The membrane preparations are stored at −80° C. and are held for several months. The cerebral cortex membrane preparation is used for A1-radioligand binding studies, and the striatum is used for A2A-radiologiand binding studies.
(§4) The test substances are dissolved in DMSO to 10 mmol. The final concentration of DMSO in the assay is 2.5% for A1- and A2A-adenosine receptor assays and 1-2% for A2B- and A3-assays. Dilution series of the test substances are produced from the stock solution. Five to eight different test concentrations, which comprise 3 orders of magnitude (e.g., 1 nm to 1000 nm), are used.
Radioligand Binding Studies with [^3H]CCPA on A1-Adenosine Receptors:
The mixture is incubated for 90 minutes in an oscillating water bath at 23° C. Then, it is filtered off with a Brandel cell-harvester and washed twice more with ice-cooled TRIS buffer, 50 mmol, pH 7.4 (3 ml). The filter plates are conveyed in scintillation vials, doused with 2.5 ml of Ultima Gold Scintillation cocktail and incubated for at least 6 hours before they are measured in a scintillation counter.
(§5) The mean value is calculated from three independent experiments. IC50 and K, values are obtained from the Cheng-Prusoff equation, the concentration and the KD value of the radioligand. For calculation, the program GraphPadPrism™, Version 3.0 (GraphPad, San Diego, Calif., USA), was used.

A2A adenosine receptor [2] = target: T2, A2A adenosine receptor (Rattus norvegicus, UniProt P30543); test: Receptor binding assay with [3H]MSX-2 on A2A-adenosine receptors; design: tissue Pel Freez Company (Rogers, Ark., USA); host or cells: rat brain striatum membranes; conditions: for Ki: Table 2, [3H]MSX-2, read-out: A2A K1
T2 sequence (P30543 whole entry): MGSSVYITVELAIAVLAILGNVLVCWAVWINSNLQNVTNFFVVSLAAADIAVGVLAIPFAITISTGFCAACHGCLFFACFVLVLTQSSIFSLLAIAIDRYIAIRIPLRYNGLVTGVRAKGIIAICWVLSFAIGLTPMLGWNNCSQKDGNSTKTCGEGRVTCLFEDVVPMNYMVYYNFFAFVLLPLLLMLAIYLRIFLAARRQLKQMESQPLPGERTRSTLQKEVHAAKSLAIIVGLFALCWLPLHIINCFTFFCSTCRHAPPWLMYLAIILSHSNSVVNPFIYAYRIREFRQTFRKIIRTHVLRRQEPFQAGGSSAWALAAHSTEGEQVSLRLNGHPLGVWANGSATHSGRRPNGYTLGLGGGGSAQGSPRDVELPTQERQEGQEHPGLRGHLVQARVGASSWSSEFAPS
Description: as §1, §2, §3, §4
Receptor Binding Assay with [^3H]MSX-2 on A2A-Adenosine Receptors:
• 25 μl of DMSO, NECA (800 μmol) or test substance dilutions • 775 μl of TRIS buffer (for production, see above) • 100 μl of [^3H]MSX-2 (final concentration 1 nmol; KD value 8 nmol) • 100 μl of rat-striatum-membrane preparation or preparation of CHO cells, which express the human A2A receptor, incubated with 0.12 IE adenosine-deaminase (protein concentration: 25-75 μg/ml) • 1000 μl of final volume
The assay is performed according to the instructions of the receptor-binding assay with [^3H]CCPA with consideration of the amounts and solutions that are listed above. The incubation time is 30 minutes at 23° C. in an oscillating water bath. The glass fiber filter is introduced 30 minutes before use in 0.5% PEI solution.
as §5

A1 adenosine receptor [3] = target: T1, A1 adenosine receptor; conditions: Table 1, literature values, cited from earlier work
A2A adenosine receptor [4] = target: T2, A2A adenosine receptor; conditions: Table 1, literature values; cited from earlier work

Compound | Ki (A1 adenosine receptor [1]) [nM] | Ki (A2A adenosine receptor [2]) [µM] | A2A % inhib. @ 10 μmol (A2A adenosine receptor [2]) | A1 % Inhibition @ 10 μmol (A1 adenosine receptor [3]; 10 μmol) | Ki (A1 adenosine receptor [3]; read-out: A1 K1) [µM] | A1 % inhib. @ 10 μmol (A1 adenosine receptor [1]) | A2A % Inhibition @ 25 μmol (A2A adenosine receptor [4])
COc1ccc2c(c1)nc(-c1cc(Cl)n[nH]1)c1nnc(Cc3cccs3)n12 [4-[3(5)-Chloro-1H-pyrazol-5(3)-yl]-7-methoxy-1-(2-thienylmethyl)-[1,2,4]triazolo[4,3-a]-quinoxaline] | 900 | 4.96 | – | – | – | – | –
Clc1cc(-c2nc3ccccc3n3c(-c4ccoc4)nnc23)n[nH]1 [Y = C-(3-Furyl), R5 = H, R6 = Cl] | 320 | 1.26 | – | – | – | – | –
Cn1nc(-c2nc3ccccc3n3c(Cc4cccs4)nnc23)cc1Cl [Y = C—CH2-(2-Thienyl), R5 = CH3, R6 = Cl, 4-(5-Chloro-1H-1-methyl-pyrazol-3-yl)-1-(2-thienylmethyl)-[1,2,4]triazolo[4,3-a]-quinoxaline] | 210 | 8.61 | – | – | – | – | –
4-(chloropyrazolyl)-1-(3-phenylpropyl)-[1,2,4-]triazolo[4,3-a]quinoxaline [Y = C—CH2—CH2—CH2-Ph, R5 = H, R6 = Cl] | 6 | > 10 | (6%) | – | – | – | –
Clc1cc(-c2nc3ccccc3n3nnnc23)n[nH]1 [Y = N, R5 = H, R6 = Cl, 4-[3(5)-Chloro-1H-pyrazol-5(3)-yl]tetrazolo[1,5-a]quinoxaline] | 670 | 6.13 | – | – | – | – | –
Clc1cc(-c2nc3ccccc3n3cnnc23)[nH]n1 [Y = C—H, R5 = H, R6 = Cl] | > 10000 | > 10 | (21%) | (35%) | > 10 | (35%) | (21%)
COc1ccc2c(c1)nc(-c1cc(Cl)[nH]n1)c1nncn12 [Y = C—H, R3 = OCH3, R5 = H, R6 = Cl, 4-[3(5)-Chloro-1H-pyrazol-5(3)-yl]-7-methoxy-[1,2,4]triazolo[4,3-a]-quinoxaline] | > 10000 | > 10 | (1%) | – | – | (13%) | –
